Consider 18 molecules from patent publication US20240140986A1, “SYNTHETIC URSOLIC ACID DERIVATIVES AND METHODS OF USE THEREOF” (REATA PHARMACEUTICALS, INC., priority 2021, published 2024).

Where two headings read alike, the source gives them in different places.

Assay [1] deals with IFNγ-induced NO production in RAW 264.7 cells. Nature of the assay: Nitric Oxide Suppression Assay (IFNγ-induced NO, Griess nitrite readout). Type of assay: cell-based, mouse. Conditions: for IC50: Mus musculus; for Avg NO IC50 Relative to RTA402 (fold): Table 2, ratio to RTA402. In short, it runs like this: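 Nitrite, a surrogate for NO, was measured by Griess reagent (525 nm) and quantified from standards by linear regression, expressed as percent of DMSO plus IFNγ control to give IC50. RAW 264.7 cells had 2 h compound pretreatment, then 24 h with 20 ng/mL IFNγ; WST-1 checked viability.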

Assay [2] concerns Nrf2 / ARE-dependent luciferase in AREc32 reporter cell line. The experiment in a line: AREc32 luciferase reporter activation (Nrf2 induction). Type of assay: cell-based, human. The following applies: for EC (2-fold): Homo sapiens, Arec32; for Relative Avg AREc32 EC2X Relative to RTA402 (fold): ratio to RTA402. The procedure, abridged: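 EC2X is the concentration raising luminescence 2-fold above DMSO-treated cells, from a nonlinear-regression dose–response fit. Compounds (0.03–1000 nM) were applied for nineteen hours, starting one day after seeding 20,000 reporter cells per well. Luciferase was read with One-Glo reagent.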
(A reporter such as luciferase makes a cellular process visible.)

The mark [3] stands for this setting: RAW264.7, Table 2, RAW 264.7 cells, 2 h pretreatment, 20 ng/mL interferon gamma 24 h, read-out: Avg NO IC50 (nM) (Mean ± SD).
The mark [4] stands for this setting: Table 2, concentration increasing luminescence 2-fold above vehicle, 19 h treatment, read-out: Avg AREc32 EC2X (nM) (Mean ± SD).
[5] abbreviates: RAW264.7, Table 3, oleanolic acid derivative analogs, read-out: Avg NO IC50.
Setting [6] is: Table 3, oleanolic acid derivative analogs, read-out: Avg ARE EC-2X.
The mark [7] stands for this setting: RAW264.7, Table 3, ursolic acid derivatives, read-out: Avg NO IC50 (nM) (Mean ± SD).
Setting [8] is: Table 3, ursolic acid derivatives, read-out: Avg ARE EC-2X (nM) (Mean ± SD).

For `COC(=O)N1CCC(=O)N1C[C@]12CC[C@@H](C)[C@H](C)[C@H]1[C@H]1C(=O)C=C3[C@@]4(C)C=C(C#N)C(=O)C(C)(C)[C@@H]4CC[C@@]3(C)[C@]1(C)CC2` [Compound T53], in assay [1] (setting [3]), the IC50 (in general, the point on the concentration scale where inhibition reaches its midpoint) was 2.79 ± 0.59 nM. The “Avg NO IC50 Relative to RTA402 (fold)” value in assay [1] is given as 0.82 ± 0.08 fold. Besides, in assay [2] (setting [4]), the EC (2-fold) was determined as 1.74 ± 0.47 nM. Also, the “Relative Avg AREc32 EC2X Relative to RTA402 (fold)” value in assay [2] (Table 2) stood at 0.173 ± 0.054 fold.

Regarding `CN(C)Cc1noc([C@]23CCC(C)(C)C[C@H]2[C@H]2C(=O)C=C4[C@@]5(C)C=C(C#N)C(=O)C(C)(C)[C@@H]5CC[C@@]4(C)[C@]2(C)CC3)n1` [CC8, reference compound], in assay [1] (setting [5]), the IC50 amounted to 3.3 nM. Besides, the EC (2-fold) in assay [2] (setting [6]) was 3.72 nM.

Take `CNC(=O)N(C)C[C@]12CC[C@@H](C)[C@H](C)[C@H]1[C@H]1C(=O)C=C3[C@@]4(C)C=C(C#N)C(=O)C(C)(C)[C@@H]4CC[C@@]3(C)[C@]1(C)CC2` [Compound T36]: the IC50 in assay [1] (setting [3]) and in assay [1] (setting [7]) was 5.08 ± 1.51 nM each time. In assay [1], the “Avg NO IC50 Relative to RTA402 (fold)” value was 1.25 ± 0.47 fold. Besides, the EC (2-fold) in assay [2] (setting [4]) and in assay [2] (setting [8]) was 5.21 ± 1.17 nM each time. Further, the “Relative Avg AREc32 EC2X Relative to RTA402 (fold)” value in assay [2] (Table 2) is 0.441 ± 0.075 fold.

Take `C[C@@H]1[C@H]2[C@H]3C(=O)C=C4[C@@]5(C)C=C(C#N)C(=O)C(C)(C)[C@@H]5CC[C@@]4(C)[C@]3(C)CC[C@@]2(CCC(=O)NC2CC2)CC[C@H]1C` [Compound T81]: the IC50 in assay [1] (setting [3]) turned out to be 2.31 ± 0.55 nM. The “Avg NO IC50 Relative to RTA402 (fold)” value in assay [1] turned out to be 0.92 ± 0.27 fold. Moreover, the EC (2-fold) in assay [2] (setting [4]) was 3.1 ± 1.5 nM. In addition, the “Relative Avg AREc32 EC2X Relative to RTA402 (fold)” value in assay [2] (Table 2) is reported as 0.238 ± 0.072 fold.

As to `C[C@H]1[C@H](C)CCC23CC[C@@]4(C)[C@]5(C)CC[C@H]6C(C)(C)C(=O)C(C#N)=C[C@]6(C)C5=CC(=O)[C@]4(OC2)[C@H]13` [Compound T12], the IC50 in assay [1] (setting [3]) came out at 6.75 ± 2.19 nM. Moreover, the “Avg NO IC50 Relative to RTA402 (fold)” value in assay [1] is on record as 3.29 ± 0.81 fold. For the same molecule, the EC (2-fold) in assay [2] (setting [4]) worked out at 9.2 ± 2.7 nM. For the same molecule, the “Relative Avg AREc32 EC2X Relative to RTA402 (fold)” value in assay [2] (Table 2) was found to be 0.724 ± 0.074 fold.

Turning to `CCC(=O)NC[C@]12CCC(C)(C)C[C@H]1[C@H]1C(=O)C=C3[C@@]4(C)C=C(C#N)C(=O)C(C)(C)[C@@H]4CC[C@@]3(C)[C@]1(C)CC2` [CC23, reference compound], in assay [1] (setting [5]), the IC50 came out at 0.4 nM. Also, the EC (2-fold) in assay [2] (setting [6]) is 2.37 nM.

Consider `CC(=N)NOC(=O)[C@]12CC[C@@H](C)[C@H](C)[C@H]1[C@H]1C(=O)C=C3[C@@]4(C)C=C(C#N)C(=O)C(C)(C)[C@@H]4CC[C@@]3(C)[C@]1(C)CC2` [Compound T107], for which the IC50 in assay [1] (setting [3]) worked out at 17.7 ± 6.9 nM. For the same molecule, in assay [1], the “Avg NO IC50 Relative to RTA402 (fold)” value is listed as 7.07 ± 1.53 fold. The EC (2-fold) in assay [2] (setting [4]) was 12.9 ± 1.5 nM. Moreover, the “Relative Avg AREc32 EC2X Relative to RTA402 (fold)” value in assay [2] (Table 2) was determined as 1.17 ± 0.25 fold.

Take `CONC(=O)[C@]12CC[C@@H](C)[C@H](C)[C@H]1[C@H]1C(=O)C=C3[C@@]4(C)C=C(C#N)C(=O)C(C)(C)[C@@H]4CC[C@@]3(C)[C@]1(C)CC2` [Compound T73]: in assay [1] (setting [3]), the IC50 is 23.1 ± 6.6 nM. Also, the “Avg NO IC50 Relative to RTA402 (fold)” value in assay [1] is on record as 7.02 ± 1.96 fold. Further, the EC (2-fold) in assay [2] (setting [4]) came out at 7.93 ± 0.82 nM. For the same molecule, the “Relative Avg AREc32 EC2X Relative to RTA402 (fold)” value in assay [2] (Table 2) was found to be 0.681 ± 0.159 fold.

`CO/N=C/[C@]12CC[C@@H](C)[C@H](C)[C@H]1[C@H]1C(=O)C=C3[C@@]4(C)C=C(C#N)C(=O)C(C)(C)[C@@H]4CC[C@@]3(C)[C@]1(C)CC2` [Compound T57]: the IC50 in assay [1] (setting [3]) is 20.1 ± 6 nM. Further, the “Avg NO IC50 Relative to RTA402 (fold)” value in assay [1] is on record as 8.81 ± 0.63 fold. Also, the EC (2-fold) in assay [2] (setting [4]) was determined as 34.1 ± 4.98 nM. In assay [2] (Table 2), the “Relative Avg AREc32 EC2X Relative to RTA402 (fold)” value worked out at 2.73 ± 0.34 fold.

Take `C[C@@H]1[C@H]2[C@H]3[C@H]4C[C@@H]5[C@@]6(C)C=C(C#N)C(=O)C(C)(C)[C@@H]6CC[C@@]5(C)[C@]3(C)CC[C@]2(CC[C@H]1C)C(=O)O4` [Compound T102]: the IC50 in assay [1] (setting [3]) is 108 ± 19 nM. In addition, in assay [1], the “Avg NO IC50 Relative to RTA402 (fold)” value is given as 36.5 ± 16.9 fold. In assay [2] (setting [4]), the EC (2-fold) was 338 ± 11 nM. Moreover, the “Relative Avg AREc32 EC2X Relative to RTA402 (fold)” value in assay [2] (Table 2) is recorded as 31.2 ± 5.3 fold.

For `C[C@@H]1[C@H]2[C@H]3C(=O)C=C4[C@@]5(C)C=C(C#N)C(=O)C(C)(C)[C@@H]5CC[C@@]4(C)[C@]3(C)CC[C@@]2(CNS(C)(=O)=O)CC[C@H]1C` [Compound T31], the IC50 in assay [1] (setting [3]) is 7.7 ± 3.1 nM. Moreover, in assay [1], the “Avg NO IC50 Relative to RTA402 (fold)” value turned out to be 2.25 ± 0.49 fold. Moreover, the EC (2-fold) in assay [2] (setting [4]) was 4.36 ± 0.81 nM. In assay [2] (Table 2), the “Relative Avg AREc32 EC2X Relative to RTA402 (fold)” value turned out to be 0.373 ± 0.071 fold.

As to `CC1(C)CC[C@]2(CN3CCC3=O)CC[C@]3(C)[C@H](C(=O)C=C4[C@@]5(C)C=C(C#N)C(=O)C(C)(C)[C@@H]5CC[C@]43C)[C@@H]2C1` [CC14, reference compound], the IC50 in assay [1] (setting [5]) turned out to be 1.1 nM. Further, the EC (2-fold) in assay [2] (setting [6]) came to 5.24 nM.

Consider `[2H]C([2H])([2H])C(=O)NC[C@]12CCC(C)(C)C[C@H]1[C@H]1C(=O)C=C3[C@@]4(C)C=C(C#N)C(=O)C(C)(C)[C@@H]4CC[C@@]3(C)[C@]1(C)CC2` [CC24, reference compound], for which, in assay [1] (setting [5]), the IC50 was determined as 0.5 nM. Also, the EC (2-fold) in assay [2] (setting [6]) was 2.96 nM.

With `C[C@@H]1[C@H]2[C@H]3C(=O)C=C4[C@@]5(C)C=C(C#N)C(=O)C(C)(C)[C@@H]5CC[C@@]4(C)[C@]3(C)CC[C@@]2(CN2CCN(C)C2=O)CC[C@H]1C` [Compound T44], the figures for the IC50 in assay [1] (setting [3]) and in assay [1] (setting [7]) were 5.53 ± 1.8 nM and 5.5 ± 1.8 nM, respectively. Besides, the “Avg NO IC50 Relative to RTA402 (fold)” value in assay [1] was 2.03 ± 0.67 fold. The EC (2-fold) in assay [2] (setting [4]) and in assay [2] (setting [8]) was 5.73 ± 1.79 nM throughout. For the same molecule, in assay [2] (Table 2), the “Relative Avg AREc32 EC2X Relative to RTA402 (fold)” value is 0.53 ± 0.13 fold.

For the molecule `CC(=O)N[C@]12CC[C@@H](C)[C@H](C)[C@H]1[C@H]1C(=O)C=C3[C@@]4(C)C=C(C#N)C(=O)C(C)(C)[C@@H]4CC[C@@]3(C)[C@]1(C)CC2` [Compound T18], the IC50 in assay [1] (setting [3]) was determined as 23 ± 4.1 nM. Moreover, the “Avg NO IC50 Relative to RTA402 (fold)” value in assay [1] came to 13.7 ± 5.76 fold. Also, the EC (2-fold) in assay [2] (setting [4]) amounted to 27.3 ± 5.8 nM. In addition, the “Relative Avg AREc32 EC2X Relative to RTA402 (fold)” value in assay [2] (Table 2) is recorded as 1.97 ± 0.24 fold.

As for `CC(=O)OCCNC[C@]12CC[C@@H](C)[C@H](C)[C@H]1[C@H]1C(=O)C=C3[C@@]4(C)C=C(C#N)C(=O)C(C)(C)[C@@H]4CC[C@@]3(C)[C@]1(C)CC2` [Compound T43], in assay [1] (setting [3]), the IC50 is 15.9 ± 7 nM. Moreover, in assay [1], the “Avg NO IC50 Relative to RTA402 (fold)” value was 5.93 ± 3.56 fold. In addition, the EC (2-fold) in assay [2] (setting [4]) amounted to 10.1 ± 1 nM. Further, the “Relative Avg AREc32 EC2X Relative to RTA402 (fold)” value in assay [2] (Table 2) stood at 0.8 ± 0.1 fold.

With `C[C@@H]1[C@H]2[C@H]3C(=O)C=C4[C@@]5(C)C=C(C#N)C(=O)C(C)(C)[C@@H]5CC[C@@]4(C)[C@]3(C)CC[C@@]2(n2ccnc2)CC[C@H]1C` [Compound T62], the IC50 in assay [1] (setting [3]) and in assay [1] (setting [7]) was 23.4 ± 5.4 nM throughout. For the same molecule, the “Avg NO IC50 Relative to RTA402 (fold)” value in assay [1] is 8.76 ± 3.40 fold. The EC (2-fold) in assay [2] (setting [4]) and in assay [2] (setting [8]) was 19.7 ± 2 nM throughout. The “Relative Avg AREc32 EC2X Relative to RTA402 (fold)” value in assay [2] (Table 2) was 1.55 ± 0.28 fold.

For `C[C@@H]1[C@H]2[C@H]3C(=O)C=C4[C@@]5(C)C=C(C#N)C(=O)C(C)(C)[C@@H]5CC[C@@]4(C)[C@]3(C)CC[C@@]2(CC(=O)N2CCC2)CC[C@H]1C` [Compound T93], the IC50 in assay [1] (setting [3]) was found to be 5.69 ± 1.93 nM. The “Avg NO IC50 Relative to RTA402 (fold)” value in assay [1] is on record as 3.06 ± 1.70 fold. Also, the EC (2-fold) in assay [2] (setting [4]) came to 4.24 ± 0.66 nM. In assay [2] (Table 2), the “Relative Avg AREc32 EC2X Relative to RTA402 (fold)” value was 0.525 ± 0.129 fold.
